The values below come from patent US20250134901A1, “PHARMACEUTICAL COMPOSITION CONTAINING COMBINATION OF MELOXICAM AND RIZATRIPTAN AND PROCESS OF PREPARATION THEREOF” (Alembic Pharmaceuticals Limited, priority 2021, published 2025).

≈ marks a conversion by molar mass, not a printed value. Where two headings read alike, the source gives them in different places.

This series is described as follows: Solubility of meloxicam API in different pH buffered solutions. Type of series: physicochemical. The conditions noted are these: read-out: Meloxicam API Solubility (BCS).

As for `Cc1cnc(NC(=O)C2=C(O)c3ccccc3S(=O)(=O)N2C)s1` [Meloxicam, 4-hydroxy-2-methyl-N-(5-methyl-2-thiazolyl)-2H-1,2-benzothiazine-3-carboxamide-1,1-dioxide], the solubility (usually the concentration that dissolves in the medium under given conditions) runs as follows: (aqueous buffer, pH 4.5 Acetate buffer) 30 µg/mL (≈ 85.4 µM); (aqueous buffer, pH 6.8 Phosphate Buffer) 2700 µg/mL (≈ 7680 µM); (aqueous buffer, pH 7.5 Phosphate buffer) 110 µg/mL (≈ 313 µM); (simulated gastric fluid, 0.01N HCl (pH 2.0)) 20 µg/mL (≈ 56.9 µM).
